Source: patent US5444043A, “Cyclic heptapeptide anti-inflammatory agent” (The Regents of the University of California, priority 1994, dated 1995)

Key:
Assay type in all cases: in vivo
[1] = tested on: phorbol-induced inflammation (edema) of mouse ears; test: Inhibition of mouse ear edema, systemic study (IP); conditions: 1 hour prior
[2] = tested on: phorbol-induced inflammation (edema) of mouse ears; test: Inhibition of phorbol (PMA)-induced mouse ear edema, standard protocol (topical); conditions: for Inhibition of Mouse Ear Edema: 3 h 20 min, relative to PMA control
Description: (§1) Cyclomarin-A was tested by measuring inhibition of phorbol-induced inflammation (edema) of mouse ears. […] The compound is topically applied in acetone to the inside pinnae of the ears of mice in a solution containing the edema-causing irritant, i.e. phorbol 12-myristate 13-acetate (PMA). PMA alone (2 microgram per ear) or in combination with varying amounts of cyclomarin-A was applied to the left ears of (5 mice per treatment group). Acetone was applied to all right ears. After a 3-hour and 20-minute incubation at 23° C., the mice were sacrificed, the ears removed and bores taken and weighed. Edema was measured by subtracting the weight of the right ear (acetone control) from the weight of the left ear (treated). The results were recorded as a percent decrease (inhibition) or percent increase (potentiation) in edema relative to the PMA control group edema.

[3] = tested on: phorbol-induced inflammation (edema) of mouse ears; test: Inhibition of mouse ear edema, time of addition study; conditions: 50 ug/ear
Description: as §1, with “The compound is topically applied in acetone to the inside pinnae of the ears of mice in a solution containing the edema-causing irritant, i.e. phorbol 12-myristate 13-acetate (PMA).” left out

Substance: cyclomarin-A
- Inhibition of Mouse Ear Edema ([1]; 25 mg/kg IP): 28.0%
- Inhibition of Mouse Ear Edema ([1]; 50 mg/kg IP): 55.0%
- Inhibition of Mouse Ear Edema ([1]; 100 mg/kg IP): 48.0%
- Inhibition of Mouse Ear Edema ([2]; 5 ug/ear topical with PMA 2 microgram per ear): 3.0%
- Inhibition of Mouse Ear Edema ([2]; 10 ug/ear topical with PMA 2 microgram per ear): 39.0%
- Inhibition of Mouse Ear Edema ([2]; 25 ug/ear topical with PMA 2 microgram per ear): 57.0%
- Inhibition of Mouse Ear Edema ([2]; 50 ug/ear topical with PMA 2 microgram per ear): 88.0%
- Inhibition of Mouse Ear Edema ([2]; 100 ug/ear topical with PMA 2 microgram per ear): 96.2%
- topical anti-inflammatory activity ([2]; topical, statement in words): exhibit topical anti-inflammatory activity
- Inhibition of Mouse Ear Edema ([3]; time of addition 0 mins): 82.8%
- Inhibition of Mouse Ear Edema ([3]; time of addition +30 mins): 50.9%
- Inhibition of Mouse Ear Edema ([3]; time of addition +60 mins): 12.0%
- Inhibition of Mouse Ear Edema ([3]; time of addition -30 mins): 79.4%
- Inhibition of Mouse Ear Edema ([3]; time of addition -60 mins): 51.8%
